Tests used:
[1] = test system: giant foxtail; assay: Test A pre-/postemergence herbicide test; type: in vivo, Setaria faberi
Outline: (§1)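 Plants are held in greenhouse about ten days after treatment, then compared with untreated controls and scored 0 (no effect) to 100 (complete control). Preemergence dosing is a directed soil spray on sown sandy loam; postemergence dosing is spray to runoff at 2–10 cm height.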

[2] = test system: giant foxtail; assay: Test B pre-/postemergence herbicide test; type: in vivo, Setaria faberi; details: for Foxtail, Giant plant response rating: postemergence
Outline: (§2)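 Formulation: non-phytotoxic solvent mix with surfactant. Timing: preemergence on seed and postemergence on 2–18 cm plants, applied concurrently. Readout after 13–15 d greenhouse: visual 0–100 control rating against controls.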

[3] = test system: Surinam grass; assay: Test B pre-/postemergence herbicide test; type: in vivo, Urochloa decumbens; details: for Surinam Grass plant response rating: postemergence
Outline: as §2

[4] = test system: wheat; assay: Test B postemergence herbicide test; type: in vivo, Triticum aestivum; design: key to Wheat plant response rating: 0 = no effect, 100 = complete control; details: postemergence
Outline: (§3)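 Plants grow to 1- to 4-leaf stage (2–18 cm) for postemergence spraying, or to 2-leaf stage for the paddy test. Formulated compound is applied. Greenhouse holding lasts 13–15 days. Response is scored visually relative to controls, 0 no effect to 100 complete control; a dash means no result.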

[5] = test system: redroot pigweed; assay: Test A pre-/postemergence herbicide test; type: in vivo, Amaranthus retroflexus
Outline: as §1

[6] = test system: blackgrass; assay: Test B postemergence herbicide test; type: in vivo, Alopecurus myosuroides; details: postemergence
Outline: as §3

[7] = test system: barnyardgrass; assay: Test A pre-/postemergence herbicide test; type: in vivo, Echinochloa crus-galli
Outline: as §1

[8] = test system: large crabgrass; assay: Test A pre-/postemergence herbicide test; type: in vivo, Digitaria sanguinalis
Outline: as §1

[9] = test system: corn; assay: Test B pre-/postemergence herbicide test; type: in vivo, Zea mays; details: for Corn plant response rating: postemergence
Outline: as §2

[10] = test system: wild oat; assay: Test B postemergence herbicide test; type: in vivo, Avena fatua; details: postemergence
Outline: as §3

[11] = test system: cocklebur; assay: Test B pre-/postemergence herbicide test; type: in vivo, Xanthium strumarium; details: for Cocklebur plant response rating: postemergence
Outline: (§4)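 Species tested were Echinochloa crus-galli, Ipomoea coccinea, Xanthium strumarium and Oryza sativa, treated both before emergence and at the 1- to 4-leaf stage; rice and barnyardgrass were also tested under flooding at 2 leaves. Greenhouse incubation lasted 13–15 days before visual 0–100 scoring.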

[12] = test system: morningglory; assay: Test B pre-/postemergence herbicide test; type: in vivo, Ipomoea coccinea; details: for Morningglory plant response rating: postemergence
Outline: as §4

[13] = test system: ducksalad; assay: Test B flooded paddy test; type: in vivo, Heteranthera limosa; details: 1000 g ai/ha, scale 0 to 100 (0 no effect, 100 complete control)
Outline: as §3

[14] = test system: velvetleaf; assay: Test A pre-/postemergence herbicide test; type: in vivo, Abutilon theophrasti
Outline: as §1

[15] = test system: pigweed; assay: Test B pre-/postemergence herbicide test; type: in vivo, Amaranthus retroflexus; details: for Pigweed plant response rating: postemergence
Outline: as §2

[16] = test system: small flower umbrella sedge; assay: Test B flooded paddy test; type: in vivo, Cyperus difformis; details: 1000 g ai/ha, scale 0 to 100 (0 no effect, 100 complete control)
Outline: as §3

[17] = test system: barnyardgrass; assay: Test B flooded paddy test; type: in vivo, Echinochloa crus-galli; details: 1000 g ai/ha, scale 0 to 100 (0 no effect, 100 complete control)
Outline: as §3

[18] = test system: barnyardgrass; assay: Test B pre-/postemergence herbicide test; type: in vivo, Echinochloa crus-galli; details: for Barnyardgrass plant response rating: postemergence
Outline: as §4

[19] = test system: rice; assay: Test B flooded paddy test; type: in vivo, Oryza sativa; details: 1000 g ai/ha, scale 0 to 100 (0 no effect, 100 complete control)
Outline: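 Scale 0–100: zero equals no visible effect, 100 complete control, judged by eye relative to controls. Timing: 13 to 15 days in greenhouse post-treatment. Growth stage at spraying: two leaves (paddy) or one to four leaves, 2–18 cm (postemergence).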

[20] = test system: morningglory; assay: Test A pre-/postemergence herbicide test; type: in vivo, Ipomoea spp.
Outline: as §1

[21] = test system: lambsquarters; assay: Test B pre-/postemergence herbicide test; type: in vivo, Chenopodium album; details: for Lambsquarters plant response rating: postemergence
Outline: as §2

[22] = test system: velvetleaf; assay: Test B pre-/postemergence herbicide test; type: in vivo, Abutilon theophrasti; details: for Velvetleaf plant response rating: postemergence
Outline: as §2

[23] = test system: large crabgrass; assay: Test B pre-/postemergence herbicide test; type: in vivo, Digitaria sanguinalis; details: for Crabgrass, Large plant response rating: postemergence
Outline: as §2

[24] = Postemergence, 500 g ai/ha, 0 to 100 scale, 0 no effect, 100 complete control
[25] = Postemergence, 2000 g ai/ha, 0 to 100 scale, 0 no effect, 100 complete control
[26] = Preemergence, 2000 g ai/ha, visual rating, 0 to 100 scale (0 no effect, 100 complete control)
[27] = preemergence, 500 g ai/ha, visual injury, 0 to 100 scale (0 no effect, 100 complete control)
[28] = 125 g ai/ha, 0 is no effect, 100 is complete control, preemergence
[29] = 125 g ai/ha, visual rating, scale 0 (no effect) to 100 (complete control)
[30] = 500 g ai/ha, visual rating, 0 = no effect, 100 = complete control, preemergence
[31] = 500 g ai/ha, scale 0 to 100, 0 is no effect, 100 is complete control

## CCc1nn(C2CCCC2)nc1C(=O)Nc1cccc(C(=O)N(C)C)c1 [Compound 355]
[1]; [24]
  Foxtail, Giant plant response rating: 10
[1]; [25]
  Plant response rating, Foxtail, Giant: 45
[1]; [26]
  Foxtail, Giant plant response rating: 60
[1]; [27]
  Foxtail, Giant plant response rating: 20
[2]; [28]
  Plant response rating (0 to 100 scale), Foxtail, Giant: 10
[2]; [29]
  Foxtail, Giant plant response rating: 20
[2]; [30]
  Plant response rating, Foxtail, Giant: 90
[2]; [31]
  Foxtail, Giant plant response rating: 30
[3]; [28]
  Plant response rating (0 to 100 scale), Surinam Grass: 40
[3]; [29]
  Surinam Grass plant response rating: 10
[3]; [30]
  Plant response rating, Surinam Grass: 80
[3]; [31]
  Surinam Grass plant response rating: 20
[4]; [29]
  Wheat plant response rating: 0
[4]; [31]
  Wheat plant response rating: 20
[5]; [24]
  Pigweed plant response rating: 40
[5]; [25]
  Plant response rating, Pigweed: 90
[5]; [26]
  Pigweed plant response rating: 50
[5]; [27]
  Pigweed plant response rating: 10
[6]; [29]
  Blackgrass plant response rating: 0
[6]; [31]
  Blackgrass plant response rating: 20
[7]; [24]
  Barnyardgrass plant response rating: 40
[7]; [25]
  Plant response rating, Barnyardgrass: 75
[7]; [26]
  Barnyardgrass plant response rating: 80
[7]; [27]
  Barnyardgrass plant response rating: 50
[8]; [24]
  Crabgrass, Large plant response rating: 10
[8]; [25]
  Plant response rating, Crabgrass, Large: 30
[8]; [26]
  Crabgrass, Large plant response rating: 50
[8]; [27]
  Crabgrass, Large plant response rating: 20
[9]; [28]
  Plant response rating (0 to 100 scale), Corn: 20
[9]; [29]
  Corn plant response rating: 0
[9]; [30]
  Plant response rating, Corn: 60
[9]; [31]
  Corn plant response rating: 0
[10]; [29]
  Oat, Wild plant response rating: 0
[10]; [31]
  Oat, Wild plant response rating: 30
[11]; [28]
  Plant response rating (0 to 100 scale), Cocklebur: 0
[11]; [29]
  Cocklebur plant response rating: 0
[11]; [30]
  Plant response rating, Cocklebur: 10
[11]; [31]
  Cocklebur plant response rating: 10
[12]; [28]
  Plant response rating (0 to 100 scale), Morningglory: 10
[12]; [29]
  Morningglory plant response rating: 10
[12]; [30]
  Plant response rating, Morningglory: 10
[12]; [31]
  Morningglory plant response rating: 40
[13]
  Ducksalad plant response rating: 70
[14]; [24]
  Velvetleaf plant response rating: 15
[14]; [25]
  Plant response rating, Velvetleaf: 65
[14]; [26]
  Velvetleaf plant response rating: 55
[14]; [27]
  Velvetleaf plant response rating: 25
[15]; [28]
  Plant response rating (0 to 100 scale), Pigweed: 50
[15]; [29]
  Pigweed plant response rating: 20
[15]; [30]
  Plant response rating, Pigweed: 100
[15]; [31]
  Pigweed plant response rating: 50
[16]
  Sedge, Umbrella plant response rating: 70
[17]
  Barnyardgrass plant response rating: 50
[18]; [28]
  Plant response rating (0 to 100 scale), Barnyardgrass: 70
[18]; [29]
  Barnyardgrass plant response rating: 0
[18]; [30]
  Plant response rating, Barnyardgrass: 90
[18]; [31]
  Barnyardgrass plant response rating: 10
[19]
  Rice plant response rating: 50
[20]; [24]
  Morningglory plant response rating: 15
[20]; [25]
  Plant response rating, Morningglory: 75
[20]; [26]
  Morningglory plant response rating: 40
[20]; [27]
  Morningglory plant response rating: 10
[21]; [28]
  Plant response rating (0 to 100 scale), Lambsquarters: 80
[21]; [29]
  Lambsquarters plant response rating: 10
[21]; [30]
  Plant response rating, Lambsquarters: 100
[21]; [31]
  Lambsquarters plant response rating: 70
[22]; [28]
  Plant response rating (0 to 100 scale), Velvetleaf: 0
[22]; [29]
  Velvetleaf plant response rating: 30
[22]; [31]
  Velvetleaf plant response rating: 50
[23]; [28]
  Plant response rating (0 to 100 scale), Crabgrass, Large: 70
[23]; [29]
  Crabgrass, Large plant response rating: 10
[23]; [30]
  Plant response rating, Crabgrass, Large: 100
[23]; [31]
  Crabgrass, Large plant response rating: 10

— patent US20060069132A1, “Azolecarboxamide herbicides” (priority 2004, published 2006)
